Experiment [1] deals with Mitogen-activated protein kinase 8 (Homo sapiens, UniProt P45983). Description: Selectivity interaction (Ambit KINOMEscan and KiNATiv profiling in Jurkat cells) EUB0000090b MAPK8. It is filed as cell-based. The conditions noted are these: at 1 µM.
The target of experiment [2] is Serine/threonine-protein kinase MARK2 (Homo sapiens) (UniProt Q7KZI7). Description: Selectivity interaction (KinomeScan (DiscoverX)) EUB0001079a MARK2. The conditions noted are these: at 1 µM.
In experiment [3] the target is T1, Serine/threonine-protein kinase 17B (Homo sapiens) (UniProt O94768).
T1 sequence (whole entry): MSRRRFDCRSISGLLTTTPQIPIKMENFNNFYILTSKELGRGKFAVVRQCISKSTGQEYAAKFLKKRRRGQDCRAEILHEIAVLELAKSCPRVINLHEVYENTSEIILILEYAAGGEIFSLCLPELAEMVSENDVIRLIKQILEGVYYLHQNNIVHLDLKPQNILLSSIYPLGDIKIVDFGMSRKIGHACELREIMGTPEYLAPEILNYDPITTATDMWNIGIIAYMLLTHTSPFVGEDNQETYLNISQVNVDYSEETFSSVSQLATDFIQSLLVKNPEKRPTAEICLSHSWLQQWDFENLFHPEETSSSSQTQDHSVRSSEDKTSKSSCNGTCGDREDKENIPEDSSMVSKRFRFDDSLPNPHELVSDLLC
Briefly: Selectivity interaction (KinomeScan (DiscoverX)) EUB0001049a STK17B. The following applies: at 1 µM.

The target in experiment [4] is Eukaryotic translation initiation factor 2-alpha kinase 1 (Homo sapiens) (UniProt Q9BQI3). Description: Selectivity interaction (KinomeScan (DiscoverX)) EUB0000666a EIF2AK1. The conditions noted are these: at 10 µM.
Experiment [5] has as its target Ribosomal protein S6 kinase alpha-1 (Homo sapiens, UniProt Q15418). Description: Selectivity interaction (KinomeScan (DiscoverX)) EUB0000666a RPS6KA1. The conditions noted are these: at 10 µM.
For experiment [6], the target named is Tyrosine-protein kinase Fgr (Homo sapiens) (UniProt P09769). Briefly: Selectivity interaction (KinomeScan (DiscoverX)) EUB0000666a FGR. The following applies: at 10 µM.
The target of experiment [7] is T2, Tyrosine-protein kinase JAK2 (Homo sapiens, UniProt O60674). Briefly: Selectivity interaction (KinomeScan (DiscoverX)) EUB0000666a JAK2. The following applies: at 10 µM.
Experiment [8] deals with Tyrosine-protein kinase JAK2 (Homo sapiens), O60674 [V617F]. Description: (§1) Selectivity interaction (Kinase panel (Z-LYTE Assay)) EUB0001632a JAK2. The following applies: at 10 µM.
Experiment [9] deals with T2, Tyrosine-protein kinase JAK2. Described as §1. The following applies: at 10 µM.
In experiment [10] the target is Serine/threonine-protein kinase PLK1 (Homo sapiens, UniProt P53350). Description: Selectivity interaction (ActivX KiNativ screen (kinase selectivity in THP-1 cell lysates)) EUB0000639a PLK1. It is filed as subcellular. The following applies: lysate, at 5 µM.
Experiment [11] addresses Dual specificity protein kinase CLK1 (Homo sapiens, UniProt P49759). Briefly: Selectivity interaction (Kinase panel (Invitrogen)) EUB0000639a CLK1. The following applies: at 200 nM.
Experiment [12] concerns the target T3, Serine/threonine-protein kinase LATS2 (Homo sapiens) (UniProt Q9NRM7).
T3 sequence (whole entry): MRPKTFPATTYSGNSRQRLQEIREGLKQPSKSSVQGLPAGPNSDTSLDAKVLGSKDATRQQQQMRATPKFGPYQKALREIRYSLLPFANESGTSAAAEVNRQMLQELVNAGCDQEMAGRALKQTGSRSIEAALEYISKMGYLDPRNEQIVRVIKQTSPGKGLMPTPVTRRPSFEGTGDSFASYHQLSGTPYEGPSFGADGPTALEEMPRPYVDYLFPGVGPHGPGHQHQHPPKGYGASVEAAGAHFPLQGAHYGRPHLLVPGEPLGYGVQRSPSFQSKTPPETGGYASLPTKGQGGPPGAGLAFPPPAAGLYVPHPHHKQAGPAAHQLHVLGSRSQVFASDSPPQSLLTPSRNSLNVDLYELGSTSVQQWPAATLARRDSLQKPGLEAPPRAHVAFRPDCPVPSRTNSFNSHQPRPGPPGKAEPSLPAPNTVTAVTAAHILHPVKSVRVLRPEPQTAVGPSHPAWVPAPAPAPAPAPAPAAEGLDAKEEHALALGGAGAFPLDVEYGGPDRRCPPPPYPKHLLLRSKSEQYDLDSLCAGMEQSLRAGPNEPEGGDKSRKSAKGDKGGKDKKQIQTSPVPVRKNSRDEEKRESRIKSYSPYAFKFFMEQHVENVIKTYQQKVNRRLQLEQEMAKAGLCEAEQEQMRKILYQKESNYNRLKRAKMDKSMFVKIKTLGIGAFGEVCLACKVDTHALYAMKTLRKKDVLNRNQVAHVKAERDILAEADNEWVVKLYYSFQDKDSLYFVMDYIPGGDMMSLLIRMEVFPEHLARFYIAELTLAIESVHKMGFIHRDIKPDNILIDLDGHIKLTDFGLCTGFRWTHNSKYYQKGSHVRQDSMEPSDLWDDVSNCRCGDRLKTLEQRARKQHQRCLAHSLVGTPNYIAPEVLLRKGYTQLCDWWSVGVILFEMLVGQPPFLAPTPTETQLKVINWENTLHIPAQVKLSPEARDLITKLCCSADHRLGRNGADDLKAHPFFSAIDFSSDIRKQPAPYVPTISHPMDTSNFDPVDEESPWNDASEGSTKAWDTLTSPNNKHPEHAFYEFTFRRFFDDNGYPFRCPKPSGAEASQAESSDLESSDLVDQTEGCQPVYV
Description: Selectivity interaction (KinomeScan (DiscoverX)) EUB0001619a LATS2. The conditions noted are these: at 1 µM.

T2 sequence (O60674 whole entry): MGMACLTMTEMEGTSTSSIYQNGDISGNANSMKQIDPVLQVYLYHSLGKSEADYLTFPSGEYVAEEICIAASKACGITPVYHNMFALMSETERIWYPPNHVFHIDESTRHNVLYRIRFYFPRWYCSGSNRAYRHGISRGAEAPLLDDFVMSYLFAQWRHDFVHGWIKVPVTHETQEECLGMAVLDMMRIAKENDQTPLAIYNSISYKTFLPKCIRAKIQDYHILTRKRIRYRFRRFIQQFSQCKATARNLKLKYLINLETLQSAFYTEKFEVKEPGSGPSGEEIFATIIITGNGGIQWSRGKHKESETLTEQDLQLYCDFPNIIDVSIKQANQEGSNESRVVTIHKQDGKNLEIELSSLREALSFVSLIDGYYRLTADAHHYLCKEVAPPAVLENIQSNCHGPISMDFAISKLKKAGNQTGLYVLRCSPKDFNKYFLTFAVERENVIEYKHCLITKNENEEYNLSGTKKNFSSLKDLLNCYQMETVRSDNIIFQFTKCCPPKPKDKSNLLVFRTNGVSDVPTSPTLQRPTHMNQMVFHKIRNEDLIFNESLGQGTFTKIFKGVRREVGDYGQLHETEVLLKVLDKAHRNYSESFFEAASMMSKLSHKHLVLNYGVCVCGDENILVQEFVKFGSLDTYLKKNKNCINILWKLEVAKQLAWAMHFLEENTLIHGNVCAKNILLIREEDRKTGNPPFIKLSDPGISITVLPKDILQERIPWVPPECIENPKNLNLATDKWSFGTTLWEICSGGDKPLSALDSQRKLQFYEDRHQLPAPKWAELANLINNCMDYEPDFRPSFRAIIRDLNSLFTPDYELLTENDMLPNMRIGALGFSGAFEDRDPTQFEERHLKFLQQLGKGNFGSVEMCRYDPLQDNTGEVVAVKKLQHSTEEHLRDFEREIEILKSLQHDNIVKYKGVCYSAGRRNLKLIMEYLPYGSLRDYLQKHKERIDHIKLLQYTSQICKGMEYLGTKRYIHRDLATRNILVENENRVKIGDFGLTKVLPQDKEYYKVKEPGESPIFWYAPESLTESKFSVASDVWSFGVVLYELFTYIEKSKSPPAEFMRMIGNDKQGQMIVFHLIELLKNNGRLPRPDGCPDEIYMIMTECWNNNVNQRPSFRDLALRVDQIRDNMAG
Chain of Ribosomal protein S6 kinase alpha-1 (Q15418 whole entry): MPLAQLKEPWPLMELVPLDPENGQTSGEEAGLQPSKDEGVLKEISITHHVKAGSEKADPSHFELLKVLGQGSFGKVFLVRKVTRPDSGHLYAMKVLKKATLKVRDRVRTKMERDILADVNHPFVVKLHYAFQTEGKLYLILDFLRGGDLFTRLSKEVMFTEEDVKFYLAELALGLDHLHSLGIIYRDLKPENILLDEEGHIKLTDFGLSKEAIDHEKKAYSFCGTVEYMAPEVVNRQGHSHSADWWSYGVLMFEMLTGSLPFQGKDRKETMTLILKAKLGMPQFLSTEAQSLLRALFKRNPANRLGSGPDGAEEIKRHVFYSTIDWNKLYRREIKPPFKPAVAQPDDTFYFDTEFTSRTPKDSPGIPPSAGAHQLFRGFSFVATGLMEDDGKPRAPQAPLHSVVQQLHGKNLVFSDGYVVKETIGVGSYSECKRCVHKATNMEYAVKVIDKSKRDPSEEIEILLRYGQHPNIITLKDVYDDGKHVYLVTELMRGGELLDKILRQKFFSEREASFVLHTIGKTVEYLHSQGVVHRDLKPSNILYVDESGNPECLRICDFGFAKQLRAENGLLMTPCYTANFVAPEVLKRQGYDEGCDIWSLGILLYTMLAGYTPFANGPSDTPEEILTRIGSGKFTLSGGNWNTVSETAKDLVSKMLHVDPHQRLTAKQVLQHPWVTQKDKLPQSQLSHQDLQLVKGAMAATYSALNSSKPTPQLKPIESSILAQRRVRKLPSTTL
Chain of Eukaryotic translation initiation factor 2-alpha kinase 1 (Homo sapiens) (Q9BQI3 whole entry): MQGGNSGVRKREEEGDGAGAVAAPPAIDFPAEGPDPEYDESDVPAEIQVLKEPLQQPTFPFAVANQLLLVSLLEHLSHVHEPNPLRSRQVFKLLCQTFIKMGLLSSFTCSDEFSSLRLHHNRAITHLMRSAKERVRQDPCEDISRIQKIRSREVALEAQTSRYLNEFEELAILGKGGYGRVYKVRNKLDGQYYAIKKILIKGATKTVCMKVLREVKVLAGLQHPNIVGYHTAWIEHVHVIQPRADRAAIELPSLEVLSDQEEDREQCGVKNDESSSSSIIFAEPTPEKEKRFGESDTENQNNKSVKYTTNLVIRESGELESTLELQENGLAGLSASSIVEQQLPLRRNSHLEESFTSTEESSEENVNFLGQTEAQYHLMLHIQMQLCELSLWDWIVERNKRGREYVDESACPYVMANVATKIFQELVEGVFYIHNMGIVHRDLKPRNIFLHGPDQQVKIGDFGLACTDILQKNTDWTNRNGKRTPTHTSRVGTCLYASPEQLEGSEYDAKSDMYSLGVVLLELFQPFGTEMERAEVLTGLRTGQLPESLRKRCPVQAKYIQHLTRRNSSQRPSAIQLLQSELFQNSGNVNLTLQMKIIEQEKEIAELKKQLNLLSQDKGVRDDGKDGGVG
Chain of Serine/threonine-protein kinase MARK2 (Homo sapiens) (Q7KZI7 whole entry): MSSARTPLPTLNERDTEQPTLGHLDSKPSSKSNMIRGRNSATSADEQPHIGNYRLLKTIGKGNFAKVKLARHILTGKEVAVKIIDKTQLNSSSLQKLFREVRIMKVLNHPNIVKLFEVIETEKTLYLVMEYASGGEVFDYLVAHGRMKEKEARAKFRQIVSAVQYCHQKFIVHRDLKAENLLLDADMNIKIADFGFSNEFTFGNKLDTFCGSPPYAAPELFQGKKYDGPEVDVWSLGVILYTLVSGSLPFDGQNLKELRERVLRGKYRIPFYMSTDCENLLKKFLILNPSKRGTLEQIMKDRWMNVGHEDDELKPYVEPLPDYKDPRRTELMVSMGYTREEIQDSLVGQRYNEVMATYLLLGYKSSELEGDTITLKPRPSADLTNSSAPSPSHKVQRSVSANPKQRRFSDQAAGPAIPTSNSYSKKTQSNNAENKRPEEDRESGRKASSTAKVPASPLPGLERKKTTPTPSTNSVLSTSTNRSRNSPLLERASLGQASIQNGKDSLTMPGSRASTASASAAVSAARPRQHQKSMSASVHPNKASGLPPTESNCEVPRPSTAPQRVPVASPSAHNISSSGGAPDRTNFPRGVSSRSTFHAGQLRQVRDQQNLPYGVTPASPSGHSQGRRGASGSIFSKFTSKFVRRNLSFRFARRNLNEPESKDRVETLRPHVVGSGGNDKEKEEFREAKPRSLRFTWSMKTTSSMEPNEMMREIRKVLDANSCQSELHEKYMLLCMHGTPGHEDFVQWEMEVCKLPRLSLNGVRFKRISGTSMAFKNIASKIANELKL
Chain of Tyrosine-protein kinase Fgr (Homo sapiens) (P09769 2-529 limits assumed): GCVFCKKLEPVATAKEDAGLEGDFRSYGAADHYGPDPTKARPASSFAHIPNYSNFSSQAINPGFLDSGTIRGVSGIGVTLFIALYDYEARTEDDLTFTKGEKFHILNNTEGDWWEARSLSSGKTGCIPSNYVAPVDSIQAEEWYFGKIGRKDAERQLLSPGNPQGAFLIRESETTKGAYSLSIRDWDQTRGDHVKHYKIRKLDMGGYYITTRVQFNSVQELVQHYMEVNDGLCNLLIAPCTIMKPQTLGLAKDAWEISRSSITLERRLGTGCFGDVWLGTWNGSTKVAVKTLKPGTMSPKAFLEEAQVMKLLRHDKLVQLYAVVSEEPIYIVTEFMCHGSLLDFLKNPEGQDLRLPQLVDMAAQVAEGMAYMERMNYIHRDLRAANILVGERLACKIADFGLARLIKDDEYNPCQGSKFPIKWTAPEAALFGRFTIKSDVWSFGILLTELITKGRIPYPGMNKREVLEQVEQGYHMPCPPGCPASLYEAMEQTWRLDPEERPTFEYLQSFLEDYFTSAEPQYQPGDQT
Chain of Dual specificity protein kinase CLK1 (P49759 whole entry, looked up): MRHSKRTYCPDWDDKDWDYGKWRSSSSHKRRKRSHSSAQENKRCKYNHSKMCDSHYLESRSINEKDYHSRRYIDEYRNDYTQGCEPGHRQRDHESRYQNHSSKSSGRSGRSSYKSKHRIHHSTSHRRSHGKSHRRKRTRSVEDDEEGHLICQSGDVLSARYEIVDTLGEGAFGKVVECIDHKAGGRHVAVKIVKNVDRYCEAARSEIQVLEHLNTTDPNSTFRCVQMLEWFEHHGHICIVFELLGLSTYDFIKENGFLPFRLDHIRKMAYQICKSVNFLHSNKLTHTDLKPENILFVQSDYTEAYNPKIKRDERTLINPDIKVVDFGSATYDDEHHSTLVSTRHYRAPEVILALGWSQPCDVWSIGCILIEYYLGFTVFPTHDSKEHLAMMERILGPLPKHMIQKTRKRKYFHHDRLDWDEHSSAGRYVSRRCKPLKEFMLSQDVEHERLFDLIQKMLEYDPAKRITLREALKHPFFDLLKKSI
Chain of Mitogen-activated protein kinase 8 (P45983 whole entry): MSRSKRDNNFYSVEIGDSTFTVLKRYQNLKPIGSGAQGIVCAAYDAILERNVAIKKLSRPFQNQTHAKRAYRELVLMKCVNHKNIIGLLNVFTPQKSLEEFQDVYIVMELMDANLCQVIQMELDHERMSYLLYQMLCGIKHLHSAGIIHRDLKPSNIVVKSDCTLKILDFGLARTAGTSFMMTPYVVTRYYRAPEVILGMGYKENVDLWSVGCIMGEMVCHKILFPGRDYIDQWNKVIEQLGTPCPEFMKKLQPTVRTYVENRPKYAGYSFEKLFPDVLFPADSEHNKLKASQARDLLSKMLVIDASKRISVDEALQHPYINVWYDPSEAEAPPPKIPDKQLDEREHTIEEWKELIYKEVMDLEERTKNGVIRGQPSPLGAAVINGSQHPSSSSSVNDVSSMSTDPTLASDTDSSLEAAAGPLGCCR
Chain of Tyrosine-protein kinase JAK2 (Homo sapiens), O60674 [V617F] (O60674 whole entry V617F): as the sequence (O60674 whole entry) above, with V617F counted along it

On to `CN(C)C/C=C/C(=O)Nc1ccc(C(=O)N2CCCC(Nc3ncc(Cl)c(-c4c[nH]c5ccccc45)n3)C2)cc1` (configuration not stated), for which the % of control in experiment [1] came to 0.95%.

For `Nc1cnc(N2CCc3cc(S(=O)(=O)Nc4c(F)cc(Cl)cc4F)cc(N4CCCC4=O)c32)nc1` [TP-020n], the % of control in experiment [2] came out at 74%. Turning to `COc1cc(Nc2nc(C)cc(-c3cnn4nc(OC)ccc34)n2)cc(C(F)(F)F)c1`, the % of control in experiment [3] is 81%. As to `O=C(NOC[C@H](O)CO)c1ccc(F)c(F)c1Nc1ccc(I)cc1F`, the % of control in experiment [4] stood at 100%; in experiment [5] it was 100%; in [6] it was 95%; in experiment [7] it was 100%. For the compound `Cn1cc(-n2cnc3c(NCc4nc5cc(Cl)c(Cl)cc5[nH]4)nc(N4CCOCC4)nc32)cn1`, the % of control in [8] was -2.15%; in [9], -3.18%. Regarding `CC[C@@H]1[C@H](F)C(=O)N[C@@H]1COc1nccc2cc(C(N)=O)c(OC)cc12` [ZIMLOVISERTIB], the % of inhibition in experiment [10] was 12.2%; in experiment [11], 34.5%.

For `N#Cc1cccc(-c2c[nH]c3ncnc(N4CCOCC4)c23)c1`, in experiment [12], the % of control came to 87%.
